One compound from US9763995B2, “Polymer conjugates of protegrin peptides” (Nektar Therapeutics, priority 2008, dated 2017) can be followed below.

As usually defined, the Tmax is the time at which the peak concentration occurs. As usually defined, the Cmax is the maximum level reached in the sampled fluid or tissue. The Vss is a proportionality between amount in the body and measured concentration, not a real space.

For one series, the system named is rat red blood cells. The series is described as follows: Hemolysis assay. Type of series: cell-based. The method, then:
Hemolysis assay. Approximately 10 mL of blood was drawn from one adult rat into Na Heparin tube and kept in ice until use. Red blood cells were washed three times with 10 mL of cold DPBS ((−) CaCl2 and (−) MgCl2) and collected by sequential centrifugation at 3,000 g for 5 min at 4° C. Pellets of red blood cells were resuspended with DPBS ((−) CaCl2 and (−) MgCl2) and the total volume was brought up to initial volume of blood drawn. One mL of resuspended red blood cells was resuspended with 49 mL of DPBS ((−) CaCl2 and (−) MgCl2). Incubation mixture was prepared by 400 fold dilution of stock solution of test compounds with final volume of 800 μl. Final concentration of test compounds was equimolar to that of respective unconjugated compounds. Hemolysis incubation was done at 37° C. with mild agitation. For releasable conjugates, test compounds were preincubated in 1×PBS at 37° C. prior to hemolysis assay. Incubation mixture was centrifuged at 3,000 g for 5 min at 4° C., and the absorbance at 550 nm was read from supernatant. […] [table]

A short description of series [1]: Pharmacokinetic studies of the protegrin conjugates, single IV dose. Type of series: in vivo, Sprague-Dawley rats. The note with it: equivalent protein mass 1.6 mg/kg IV. The method, then: Twenty one (21) adult male Sprague-Dawley rats with indwelling jugular vein and carotid artery catheters (JVC/CAC) (Charles River Labs, Hollister, Calif.) were utilized for this study. The weight range of the animals was 313-346 grams. All animals were food fasted overnight. Prior to dosing the rats were weighed, the tails and cage cards were labeled for identification and the doses were calculated. Anesthesia was induced and maintained with 3.0-5.0% isoflurane. The JVC and CAC were externalized, flushed with HEP/saline (10 IU/mL HEP/mL saline), plugged, and labeled to identify the jugular vein and carotid artery The predose sample was collected from the JVC. […] Following the last collection point, the animals were euthanized. Bioanalytical analysis: analysis of the plasma samples was conducted using non-validated LC-MS/MS methods. Noncompartmental PK data analysis and report preparation was completed. PK analysis was performed using WinNonlin (Version 5.2, Mountain View, Calif.-94014). Concentrations in plasma that were below LLOQ were replaced with zeros prior to generating Tables and PK analysis. The following PK parameters were estimated using plasma concentration-time profile of each animal: • C0 Extrapolated concentration to time “zero” • Cmax Maximum (peak) concentration • AUCall Area under the concentration-time from zero to time of last concentration value • T1/2(Z) Terminal elimination half-life • AUCinf Area under the concentration-time from zero to time infinity • Tmax Time to reach maximum or peak concentration following administration • CL Total body clearance • Vz Volume of distribution based on terminal phase • Vss Volume of distribution at steady state • MRTlast Mean residence time to last observable concentration

The mark [2] stands for this setting: non-releasable PEG conjugates, Sprague Dawley rats, Mean ± SD.
The mark [3] stands for this setting: protegrin-1 in plasma, rats, native or via releasable PEG conjugate.

The structures appear in SMILES notation.

On to `CC(C)C[C@H](NC(=O)[C@H](CCCNC(=N)N)NC(=O)CNC(=O)CNC(=O)[C@@H](N)CCCNC(=N)N)C(=O)N[C@H]1CSSC[C@@H](C(=O)N[C@H](C(=O)NCC(=O)N[C@@H](CCCNC(=N)N)C(N)=O)C(C)C)NC(=O)[C@H](C(C)C)NC(=O)[C@@H]2CSSC[C@H](NC(=O)[C@H](Cc3ccc(O)cc3)NC1=O)C(=O)N[C@@H](CCCNC(=N)N)C(=O)N[C@@H](CCCNC(=N)N)C(=O)N[C@@H](CCCNC(=N)N)C(=O)N[C@@H](Cc1ccccc1)C(=O)N2` [Protegrin-1], for which the “hemolytic effects / hemolytic activity” value in the series with rat red blood cells (rat red blood cells, 37° C., relative to 100% hemolysis by 0.25% Triton X-100, releasable conjugates preincubated in 1XPBS at 37° C.) is “comparable to literature data”. Moreover, the “hemolytic activity retained compared to PG1 preincubated for 0 hr” value in the series on rat red blood cells (red cells of rat, 96 h) was “about 60%”. Besides, the Tmax in series [1] (male, Sprague-Dawley, rat, in vivo, protegrin-1 in plasma, rats, native or via releasable PEG conjugate) was determined as 1.8 min. In series [1] (setting [2]), the AUCINF worked out at 1160 ± 351 ng·h/mL, the CL is listed as 1470 ± 434^ mL/hr/kg, the Cmax is 2050 ± 601 ng/mL and the MRTlast stood at 31.2 ± 3 min. Also, in series [1] (setting [2]), the T1/2 worked out at 21 ± 6 min and the distribution volume (Vss) is 0.848 ± 0.36 L/kg. For the same compound, in series [1] (setting [3]), the AUCINF amounted to 1160 ng·h/mL, the Cmax is listed as 2050 ng/mL, the MRTlast worked out at 31.2 min and the T1/2 was determined as 21 min.
